{"source": "patent US20250276999A1", "about": "“PEPTIDES FOR PROMOTING HAIR FOLLICLE NEOGENESIS, AND PREVENTION/MITIGATION OF UNTOWARD EFFECTS OF RADIATION TREATMENT” (Trustees of Tufts College, priority 2022, published 2025)", "test_system": "hair follicle neogenesis", "assay": "Patch assay, hair follicle neogenesis in vivo", "design": "species or system nu/nu mouse", "conditions": "100 μM peptide vs scrambled peptide, N=3 patches (FIG. 2)", "protocol": "Next, we used a patch assay to test is TSN peptides can induce hair follicle neogenesis in vivo. Epidermal aggregates were resuspended in DMEM/F12 at 750,000 aggregates/750 μL (1000 aggregates/μL) and spheroids were resuspended in DMEM/F12 at 1400 spheroids/140 μL (10 spheroids/μL). 10 million dermal cells were resuspended in 400 μL DMEM/F12 (25,000 cell/μL or 1.25E6 per 50 μL). […] Using a dissecting microscope the number of hair follicles were counted for each implantation from the mucosal side of the skin (FIG. 2).\nPreparation of spheroids: Dermal Papilla (DP) cells were trypsinized, neutralized and counted. […]\nPreparation of epidermal Cell aggregates: From 12 neonatal foreskins, the epidermis was separated from the dermis using dispase incubation overnight. […] The final pellet was resuspended in 6 mL DMEM/F12 (for 12 skins) and the aggregates were counted using hemocytometer. […]", "data": [{"sequence": "HSPDIQLQKGLTFEPIQIK [TSN6, 19 amino acid peptide derived from multimerin-1, Coiled coil domain]", "values": [{"measurement": "number of hair follicles (hair follicle formation)", "value": "two-fold increase"}]}]}
